Assay results published in patent publication US20070010671A1, “Novel quinazoline derivatives and methods of treatment related to the use thereof” (priority 2003, published 2007).

The compounds below were run against MCH receptor (Homo sapiens, UniProt Q99705) (assay: High throughput functional screening FLIPR/FDSS6000: inhibition of MCH-evoked intracellular Ca2+ changes). Settings: class by percent of control at 10^-7 M or IC50.
Format: cell-based
In short: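 Seed cells the day before, then load them with Fluo4-AM for one hour at 37° C and wash in HEPES-buffered HBSS, pH 7.4. Add compound for 3 min, then stimulate with 50 nM MCH. Monitor the calcium transient for 290 s.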

SMILES	class
CC(NC(=O)NC[C@H]1CC[C@@H](Nc2nc(N(C)C)c3ccccc3n2)CC1)c1cccc2ccccc12 (relative stereo) [compound 461]	3 (Class 3: The value of percent of control at 10^−7 M was more than 60% or the value of IC50 was more than 200 nM.)
CN(C)c1nc(N[C@H]2CC[C@@H](NC(=O)Nc3ccc4c(c3)OCCO4)CC2)nc2ccccc12 [compound 338, N-(2,3-dihydro-1,4-benzodioxin-6-yl)-N′-(cis-4-{[4-(dimethylamino)quinazolin-2-yl]amino}cyclohexyl)urea]	1 (Class 1: The value of percent of control at 10^−7 M was less than 40% or the value of IC50 was less than 50 nM.)
C#CCNC(=S)N[C@H]1CC[C@@H](Nc2nc(N(C)C)c3ccccc3n2)CC1 [compound 356]	3 (Class 3: The value of percent of control at 10^−7 M was more than 60% or the value of IC50 was more than 200 nM.)
CC(=O)c1cccc(NC(=S)NC[C@H]2CC[C@@H](Nc3nc(N(C)C)c4ccccc4n3)CC2)c1 [compound 577]	3 (Class 3: The value of percent of control at 10^−7 M was more than 60% or the value of IC50 was more than 200 nM.)
Cc1cccc(C(C)C)c1NC(=S)N[C@H]1CC[C@@H](Nc2nc(N(C)C)c3ccccc3n2)CC1 [compound 366, N-(cis-4-{[4-(dimethylamino)quinazolin-2-yl]amino}cyclohexyl)-N′-(2-isopropyl-6-methylphenyl)thiourea]	1 (Class 1: The value of percent of control at 10^−7 M was less than 40% or the value of IC50 was less than 50 nM.)
CN(C)c1nc(N[C@H]2CC[C@@H](CNC(=S)Nc3cc(F)cc(F)c3)CC2)nc2ccccc12 [compound 648]	3 (Class 3: The value of percent of control at 10^−7 M was more than 60% or the value of IC50 was more than 200 nM.)
CC(C)c1ccc(NC(=S)N[C@H]2CC[C@@H](Nc3nc(N(C)C)c4ccccc4n3)CC2)c(Br)c1 [compound 363, N-(2-bromo-4-isopropylphenyl)-N′-(cis-4-{[4-(dimethylamino)quinazolin-2-yl]amino}cyclohexyl)thiourea]	2 (Class 2: The value of percent of control at 10^−7 M was from 40% to 60% or the value of IC50 was from 50 nM to 200 nM.)
CN(C)c1nc(N[C@H]2CC[C@@H](CNC(=S)NCc3ccc4c(c3)OCO4)CC2)nc2ccccc12 [compound 604]	2 (Class 2: The value of percent of control at 10^−7 M was from 40% to 60% or the value of IC50 was from 50 nM to 200 nM.)
CN(C)c1nc(N[C@H]2CC[C@@H](NC(=S)NCCCc3ccccc3)CC2)nc2ccccc12 [compound 264]	3 (Class 3: The value of percent of control at 10^−7 M was more than 60% or the value of IC50 was more than 200 nM.)
CN(C)c1nc(N[C@H]2CC[C@@H](CNC(=S)NC3CCCCCC3)CC2)nc2ccccc12 [compound 748]	3 (Class 3: The value of percent of control at 10^−7 M was more than 60% or the value of IC50 was more than 200 nM.)
COc1cc(NC(=S)N[C@H]2CC[C@@H](Nc3nc(N(C)C)c4ccccc4n3)CC2)cc(OC)c1 [compound 259]	2 (Class 2: The value of percent of control at 10^−7 M was from 40% to 60% or the value of IC50 was from 50 nM to 200 nM.)
CN(C)c1nc(N[C@H]2CC[C@@H](CNC(=S)NC(c3ccccc3)c3ccccc3)CC2)nc2ccccc12 [compound 708, N-[(cis-4-{[4-(dimethylamino)quinazolin-2-yl]amino}cyclohexyl)methyl]-N′-(diphenylmethyl)thiourea]	2 (Class 2: The value of percent of control at 10^−7 M was from 40% to 60% or the value of IC50 was from 50 nM to 200 nM.)
CN(C)c1nc(N[C@H]2CC[C@@H](CNC(=O)Nc3ccc(F)c(C(F)(F)F)c3)CC2)nc2ccccc12 [compound 552]	3 (Class 3: The value of percent of control at 10^−7 M was more than 60% or the value of IC50 was more than 200 nM.)
COc1ccc(NC(=O)NC[C@H]2CC[C@@H](Nc3nc(N(C)C)c4ccccc4n3)CC2)cc1OC1CCCC1 [compound 762]	3 (Class 3: The value of percent of control at 10^−7 M was more than 60% or the value of IC50 was more than 200 nM.)
CN(C)c1nc(N[C@H]2CC[C@@H](CNC(=O)Nc3c(Cl)cccc3Cl)CC2)nc2ccccc12 [compound 483, N-(2,6-dichlorophenyl)-N′-[(cis-4-{[4-(dimethylamino)quinazolin-2-yl]amino}cyclohexyl)methyl]urea]	1 (Class 1: The value of percent of control at 10^−7 M was less than 40% or the value of IC50 was less than 50 nM.)
CN(C)c1nc(N[C@H]2CC[C@@H](CNC(=O)Nc3c(F)cccc3F)CC2)nc2ccccc12 [compound 426, N-(2,6-difluorophenyl)-N′-[(cis-4-{[4-(dimethylamino)quinazolin-2-yl]amino}cyclohexyl)methyl]urea]	2 (Class 2: The value of percent of control at 10^−7 M was from 40% to 60% or the value of IC50 was from 50 nM to 200 nM.)

Same assay, conditions: class by percent of control at 10^-7 M or by IC50; read-out: class

IC50 [µM]	SMILES
< 0.05	CN(C)c1nc(N[C@H]2CC[C@@H](NC(=O)NCc3ccc(Br)cc3)CC2)nc2ccccc12 [compound 144, N-(4-bromobenzyl)-N′-(cis-4-{[4-(dimethylamino)quinazolin-2-yl]amino}cyclohexyl)urea]
> 0.2	COC(=O)N[C@H]1CC[C@@H](Nc2nc(N(C)C)c3ccccc3n2)CC1 [compound 862]
< 0.05	CN(C)c1nc(N[C@H]2CC[C@@H](NC(=O)Nc3ccccc3C(F)(F)F)CC2)nc2ccccc12 [compound 55, N-(cis-4-{[4-(dimethylamino)quinazolin-2-yl]amino}cyclohexyl)-N′-[2-(trifluoromethyl)phenyl]urea]
> 0.2	CCCCCCCCOC(=O)NC[C@H]1CC[C@@H](Nc2nc(N(C)C)c3ccccc3n2)CC1 [compound 873]
> 0.2	CN(C)c1nc(N[C@H]2CC[C@@H](NC(=O)Nc3ccc(Cl)cc3)CC2)nc2ccccc12 [compound 15]
0.05 to 0.2	Cc1ccc(CNC(=O)N[C@H]2CC[C@@H](Nc3nc(N(C)C)c4ccccc4n3)CC2)cc1 [compound 830, N-(cis-4-{[4-(dimethylamino)quinazolin-2-yl]amino}cyclohexyl)-N′-(4-methylbenzyl)urea]
0.05 to 0.2	CN(C)c1nc(N[C@H]2CC[C@@H](CNC(=S)NC3CC4CCC3C4)CC2)nc2ccccc12 (relative stereo) [compound 798]
> 0.2	COc1ccc(NC(=O)N[C@H]2CC[C@@H](Nc3nc(N(C)C)c4ccccc4n3)CC2)c([N+](=O)[O-])c1 [compound 828]
< 0.05	CN(C)c1nc(N[C@H]2CC[C@@H](NC(=S)Nc3ccc(C#N)cc3)CC2)nc2ccccc12 [compound 160, N-(4-cyanophenyl)-N′-(cis-4-{[4-(dimethylamino)quinazolin-2-yl]amino}cyclohexyl)thiourea]
> 0.2	C=CCOC(=O)NC[C@H]1CC[C@@H](Nc2nc(N(C)C)c3ccccc3n2)CC1 [compound 877]

Same assay, conditions: class by percent of control at 10^−7 M or by IC50; read-out: class

IC50 [µM]	SMILES
< 0.05	COc1cccc(OCC(=O)N[C@H]2CC[C@@H](Nc3nc(N(C)C)c4ccccc4n3)CC2)c1 [Example 1081, N-(cis-4-{[4-(dimethylamino)quinazolin-2-yl]amino}cyclohexyl)-2-(3-methoxyphenoxy)acetamide]
< 0.05	COc1cccc(C(O)C(=O)N[C@H]2CC[C@@H](Nc3nc(N(C)C)c4ccccc4n3)CC2)c1 (relative stereo) [Example 1113, N-(cis-4-{[4-(dimethylamino)quinazolin-2-yl]amino}cyclohexyl)-2-hydroxy-2-(3-methoxyphenyl)acetamide]
